The numbers were not newly measured in patent publication US20040131981A1, “Color developing solution of silver halide color photographic photosensitive material and manufacturing method of color developing solution” (priority 2002, published 2004), which cites them from elsewhere.

Values joined by “and” are separate entries in the source; they are usually repeats but may differ in a detail not shown here. Equal values may be shown once. Read-outs that look alike come from different tables or passages of the source.

A word on the pKa: it is the pH at which an ionisable group is half protonated.

The conditions of this series: for Pka: pH buffering agent of alkali part solution; for pka: PH buffering agent of alkali part solutions B1-B34, Table 3; for pKa: pH buffering agents with pKa 5 to 9 for fixing and bleaching-fixing solution.

For `CNCC(=O)O` [Compound I-2, H3C—NH—CH2—COOH], the Pka (Compound I) was 10.01.
On to `CC(N)C(=O)O` (stereo not drawn) [Compound I-3], for which the pka is 9.87 and 10.26. For the same molecule, the Pka (Compound I) was 9.87.
Turning to `NCCC(=O)O` [Compound I-4, H2N—C2H4—COOH], the pka is 10.26. In addition, where the note is “Compound I”, the Pka is 10.26.
Take `CCC(N)C(=O)O` (stereo not drawn) [Compound I-5]: where the note is “Compound I”, the Pka is listed as 9.66.
Consider `CCCCC(N)C(=O)O` (stereo not drawn) [Compound I-7], for which the Pka (Compound I) is given as 9.96.
For the molecule `CC(C)CC(N)C(=O)O` (stereo not drawn) [Compound I-8], the Pka (Compound I) is 9.78.
As for `NC(Cc1ccccc1)C(=O)O` (stereo not drawn) [Compound I-9], under “Compound I”, the Pka was 9.18.
For the molecule `NC(CO)C(=O)O` (stereo not drawn) [Compound I-11], the Pka (Compound I) was 9.12.
`NC(CS)C(=O)O` (stereo not drawn) [Compound I-13]: where the note is “Compound I”, the Pka is 10.28.
Consider `CSCCC(N)C(=O)O` (stereo not drawn) [Compound I-14], for which the Pka (Compound I) is given as 9.13.
As to `NC(CC(=O)O)C(=O)O` (stereo not drawn) [Compound I-15], the pka is listed as 9.62. Moreover, where the note is “Compound I”, the Pka is 9.62.
Consider `NC(CCC(=O)O)C(=O)O` (stereo not drawn) [Compound I-16], for which the Pka (Compound I) was 9.67.
For `NCC(N)C(=O)O` (stereo not drawn) [Compound I-17], the Pka (Compound I) was 9.50.
As for `NCCCCC(N)C(=O)O` (stereo not drawn) [Compound I-19], the Pka (Compound I) was 10.72 and 9.18.
With `N=C(N)NCCCC(N)C(=O)O` (stereo not drawn) [Compound I-20], the pka was 9.08. Also, the Pka (Compound I) was 9.08.
Regarding `CCNCC(=O)O` [Compound I-21, H5C2—NH—CH2—COOH], the Pka (Compound I) is 10.10.
For the molecule `CCCNCC(=O)O` [Compound I-22, CH3CH2CH2—NH—CH2COOH], under “Compound I”, the Pka is on record as 10.03.
For `CN(C)CC(=O)O` [Compound I-24], the Pka (Compound I) was 9.80.
For the molecule `CCN(CC)CC(=O)O` [Compound I-25], where the note is “Compound I”, the Pka is 10.47.
Turning to `CC1CCNC1C(=O)O` (stereo not drawn) [Compound I-26], the Pka (Compound I) was 10.68.
Turning to `CC1C(O)CNC1C(=O)O` (stereo not drawn) [Compound I-27], the Pka (Compound I) is given as 9.58.
Consider `NC(Cc1c[nH]c2ccccc12)C(=O)O` (stereo not drawn) [Compound I-28], for which the Pka (Compound I) is recorded as 9.55.
`NC1(C(=O)O)CCCC1` [Compound I-29]: the Pka (Compound I) is given as 10.31.
For the molecule `NC1(C(=O)O)CCCCC1` [Compound I-30], the Pka (Compound I) is listed as 10.13.
In the case of `NC1(C(=O)O)CCCCCC1` [Compound I-31], the Pka (Compound I) is 10.46.
Regarding `O[Si](O)(O)O` [H2SiO2(OH)2, reference compound], the pka is 13.1.
Turning to `NCCN(CC(=O)O)CC(=O)O` [II-25], where the note is “Compound II”, the Pka is on record as 11.05.
As for `O=C(O)CNCCNCC(=O)O` [II-26, HOOCH2C—NH—C2H4—NH—CH2COOH], the Pka (Compound II) is given as 9.57.
Consider `O=C(O)CCNCCNCCC(=O)O` [II-27, HOOCH4C2—NH—C2N4—NH—C2H4COOH], for which the Pka (Compound II) is listed as 9.58.
As for `O=C(O)CN(CCN(CC(=O)O)C1CCCCC1)CC(=O)O` [II-29], the Pka (Compound II) is 10.15.
Consider `O=C(O)CN(CCN(CC(=O)O)C1CCCCC1O)CC(=O)O` (stereo not drawn) [II-30], for which the Pka (Compound II) is recorded as 10.38.
Regarding `O=C(O)CN(CCN(CC(=O)O)c1ccccc1)CC(=O)O` [II-31], the Pka (Compound II) is reported as 9.84.
On to `CCNCCN` [II-34, N-ethylethylenediamine], for which the pKa is 7.63. Further, the Pka (Compound II) is recorded as 10.56.
Take `NCCNCCO` [II-37, N-(2-hydroxyethyl)ethylenediamine]: the pKa is 7.21. Moreover, the Pka (Compound II) is listed as 10.12.
With `CN(C)CCN` [II-38], the Pka (Compound II) was 10.00.
Take `CCN(CC)CCN` [II-39]: the Pka (Compound II) is on record as 10.02.
In the case of `CNCCNC` [II-40], the Pka (Compound II) is recorded as 10.29.
On to `CN(C)CCN(C)C` [II-44], for which the Pka (Compound II) is recorded as 10.13.
In the case of `CC(N)C(C)N` (stereo not drawn) [II-46, NH2—CH(CH3)—CH(CH3)—NH2], the Pka (Compound II) is listed as 9.97.
For the molecule `NCCCN` [II-47, H2N—C3H6—NH2], under “Compound II”, the Pka is given as 10.62.
Consider `NCCCCN` [II-48, H2N—C4H8—NH2], for which the Pka (Compound II) is 10.82 and 9.61.
As to `NCCCCCN` [II-49, H2N—C5H10—NH2], the Pka (Compound II) was 10.96 and 10.02.
For the molecule `NC1CCCCC1N` (stereo not drawn) [II-50], under “Compound II”, the Pka is 9.99(cis).
As to `NC1CCCCC1N` (stereo not drawn) [II-51], the Pka (Compound II) was 9.89(trans).
For `NC1CCCCCC1N` (stereo not drawn) [II-52], the Pka (Compound II) is on record as 10.48.
Turning to `NCC(CN)CN` [II-54], the Pka (Compound II) is 9.94 and 9.13.
`NCCCNCCCN` [II-55, H2N—C3H6—NH—C3H6—NH2]: the Pka (Compound II) was 11.70 and 10.77.
On to `NCCNCCNCCN` [II-56, triethylenetetramine], for which the pKa was 6.67. Under “Compound II”, the Pka is 9.92 and 9.20.
With `NCC(CN)CN` [II-57, 1,3-diamino-2-aminomethylpropane], the pKa is given as 6.44. The Pka (Compound II) was 9.92 and 9.20.
For `O=C(O)CNCC(=O)O` [III-1], the pka is given as 9.12. The Pka (Compound III) is on record as 9.12.
With `O=C(O)CCNCCC(=O)O` [III-2], the Pka (Compound III) was 10.31.
For `CN(CC(=O)O)CC(=O)O` [III-3], under “Compound III”, the Pka is recorded as 10.60.
Turning to `CC(C)(C)CCN(CC(=O)O)CC(=O)O` [III-4], for the setting “Compound III”, the Pka is given as 10.24.
Turning to `O=C(O)CN(CCS)CC(=O)O` [III-5], for the setting “Compound III”, the Pka is listed as 10.79.
As for `O=C(O)CN(CCCO)CC(=O)O` [III-6], the Pka (Compound III) is 9.24.
With `O=C(O)CN(CC(=O)O)Cc1ccc(O)cc1` [III-7], the Pka (Compound III) is given as 11.79.
Turning to `O=C(O)CN(CC(=O)O)CP(=O)(O)O` [III-8], the Pka (Compound III) is recorded as 10.76.
As for `O=C(O)CN(CCP(=O)(O)O)CC(=O)O` [III-9], the Pka (Compound III) is 10.46.
On to `NCCN(CCN)CCN` [III-14], for which the Pka (Compound III) is given as 9.60.
With `COCCN` [III-16, CH3—O—C2H4—NH2], the Pka (Compound III) was 9.61.
For `OCCNCCO` [III-17], the pka is given as 9.00. For the setting “Compound III”, the Pka is reported as 9.00.
As to `O=C([O-])[O-].[K+].[K+]` [K2CO3 (carbonic acid)], the pka is 10.33.
`CCN(CC)CCN` [N,N-diethylethylenediamine]: the pKa was 7.07.
On to `CN(C)CCN` [N,N-dimethylethylenediamine], for which the pKa was 6.79.
For the molecule `OCCNCCNCCO` [N,N′-di(2-hydroxylethyl)ethylenediamine], the pKa is given as 7.18.
On to `CCNCCNCC` [N,N′-diethylethylenediamine], for which the pKa is 7.77.
As for `CNCCNC` [N,N′-dimethylethylenediamine], the pKa is recorded as 7.47.
Take meso-2,3-diaminopropane: the pKa was 6.92.
